Test results as given in the supplement of paper PMC6045584.
± gives the standard deviation of the averaged measurements.

Assays:
MK-1775 = compound: C=CCn1c(=O)c2cnc(Nc3ccc(N4CCN(C)CC4)cc3)nc2n1-c1cccc(C(C)(C)O)n1 [MK-1775]; assay: surviving fraction relative to DMSO-only wells; higher = less growth inhibition; settings: exposure time: 5 days
Method in brief: (§1)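 Tumour cell lines were seeded in log phase at 250–500 cells per well into 384-well plates. Starting 24 hours later, inhibitors were present continuously for five days at 0.5, 1, 5, 10, 50, 100, 500 and 1000 nM. Surviving fraction, from CellTiter-Glo luminescence, is normalised to the median of DMSO-only wells. Three screens per line were required, with replicate Pearson r >0.7 and median Z' >0.3 for a line to be kept.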

[1] = compound: CCc1cc(Nc2nccc(-c3c(-c4ccc(OC)c(C(=O)Nc5c(F)cccc5F)c4)nc4ccccn34)n2)c(OC)cc1N1CCC(N2CCN(S(C)(=O)=O)CC2)CC1; assay: as above; settings: exposure time: 5 days
Method in brief: as §1

Row | Test System | surviving fraction (MK-1775; 0.5 nM) | surviving fraction (MK-1775; 1 nM) | surviving fraction (MK-1775; 5 nM) | surviving fraction (MK-1775; 10 nM) | surviving fraction (MK-1775; 50 nM) | surviving fraction (MK-1775; 100 nM) | surviving fraction (MK-1775; 500 nM) | surviving fraction (MK-1775; 1000 nM) | surviving fraction ([1]; 0.5 nM) | surviving fraction ([1]; 1 nM) | surviving fraction ([1]; 5 nM) | surviving fraction ([1]; 10 nM) | surviving fraction ([1]; 50 nM) | surviving fraction ([1]; 100 nM) | surviving fraction ([1]; 500 nM) | surviving fraction ([1]; 1000 nM)
1 | SYO1 SYNOVIAL | 1.01 ± 0.014 | 0.977 ± 0.053 | 1 ± 0.014 | 0.9618 ± 0.0076 | 0.658 ± 0.033 | 0.317 ± 0.076 | 0.473 ± 0.11 | 0.0491 ± 0.0039 | 0.945 ± 0.041 | 0.992 ± 0.031 | 0.948 ± 0.048 | 0.945 ± 0.045 | 0.969 ± 0.034 | 1.02 ± 0.044 | 0.949 ± 0.03 | 0.895 ± 0.022
2 | T47D BREAST | 1.07 ± 0.021 | 1.05 ± 0.014 | 1.1 ± 0.044 | 1.01 ± 0.015 | 1.06 ± 0.065 | 0.979 ± 0.025 | 0.453 ± 0.025 | 0.38 ± 0.024 | 1.06 ± 0.042 | 1.04 ± 0.027 | 1.05 ± 0.031 | 1.07 ± 0.016 | 1.06 ± 0.056 | 1.14 ± 0.051 | 1.03 ± 0.036 | 0.997 ± 0.014
3 | U2OS BONE | 1.03 ± 0.028 | 0.991 ± 0.043 | 1.07 ± 0.032 | 1.07 ± 0.034 | 0.922 ± 0.039 | 0.641 ± 0.028 | 0.133 ± 0.002 | 0.0693 ± 0.0045 | 0.992 ± 0.02 | 1 ± 0.017 | 1.06 ± 0.025 | 1.031 ± 0.0015 | 1.06 ± 0.023 | 1.06 ± 0.035 | 1.01 ± 0.013 | 0.975 ± 0.019
4 | VCAP PROSTATE | 1.14 ± 0.079 | 1.14 ± 0.19 | 1.09 ± 0.042 | 1.08 ± 0.08 | 1.04 ± 0.12 | 0.52 ± 0.11 | 0.0963 ± 0.019 | 0.121 ± 0.019 | 1.02 ± 0.1 | 1.05 ± 0.072 | 0.986 ± 0.12 | 1.07 ± 0.042 | 0.984 ± 0.091 | 1.05 ± 0.03 | 1.03 ± 0.055 | 0.9673 ± 0.0061
5 | VP229 BREAST | 1.13 ± 0.14 | 1.01 ± 0.044 | 1.01 ± 0.056 | 1.07 ± 0.063 | 1.02 ± 0.034 | 0.754 ± 0.093 | 0.41 ± 0.056 | 0.261 ± 0.013 | 1.13 ± 0.059 | 1.08 ± 0.033 | 1.24 ± 0.11 | 1.17 ± 0.063 | 1.09 ± 0.13 | 1.09 ± 0.052 | 1.18 ± 0.17 | 0.875 ± 0.12
6 | YAMATO SYNOVIAL | 1.31 ± 0.14 | 1.29 ± 0.064 | 1.43 ± 0.074 | 1.2 ± 0.093 | 1.27 ± 0.12 | 0.972 ± 0.036 | 0.463 ± 0.031 | 0.424 ± 0.018 | 1.32 ± 0.085 | 1.34 ± 0.1 | 1.44 ± 0.085 | 1.28 ± 0.023 | 1.36 ± 0.066 | 1.42 ± 0.1 | 1.2 ± 0.19 | 0.873 ± 0.091
7 | ZR751 BREAST | 1.18 ± 0.14 | 1 ± 0.16 | 0.999 ± 0.19 | 1.04 ± 0.15 | 1.01 ± 0.16 | 1.04 ± 0.17 | 0.733 ± 0.1 | 0.622 ± 0.086 | 0.886 ± 0.14 | 0.98 ± 0.062 | 0.876 ± 0.11 | 0.935 ± 0.1 | 0.87 ± 0.07 | 0.895 ± 0.12 | 0.928 ± 0.094 | 0.954 ± 0.093
